Assay results published in patent US8163766B2, “Beta-secretase modulators and methods of use” (Amgen Inc., priority 2005, dated 2012).

Tested on: Aβ 40 in conditioned media of cells stably expressing Amyloid Precursor Protein (APP)
Assay: BACE Cell-Based Assay (Aβ40 in conditioned medium, sandwich ELISA)
Details: 24 hours of incubation with the test compounds, Aβ 40 by sandwich ELISA, read-out: IC50 values in the cell-based assay (inhibition of Aβ 40)
Experimental: The cell-based assay measures inhibition or reduction of Aβ40 in conditioned medium of test compound treated cells, which express amyloid precursor protein.
Cells stably expressing Amyloid Precursor Protein (APP) were plated at a density of 40K cells/well in 96 well plates (Costar). The cells were cultivated for 24 h at 37° C. and 5% CO2 in DMEM supplemented with 10% FBS. The test compounds were then added to cells in 10-point dose response concentrations with the starting concentration being either 100 μM or 10 μM. The compounds were diluted from stock solutions in DMSO and the final DMSO concentration of the test compounds on cells was 0.1%. After 24 hours of incubation with the test compounds the supernatant conditioned media was collected and the Aβ 40 levels were determined using a sandwich ELISA. The IC50 of the compound was calculated from the percent of control or percent inhibition of Aβ 40 as a function of the concentration of the test compound.
The sandwich ELISA to detect Aβ 40 was performed in 96 well microtiter plates, which were pre-treated with goat anti-rabbit IgG (Pierce). The capture and detecting antibody pair that were used to detect Aβ 40 from cell supernatants were affinity purified pAb40 (Biosource) and biotinylated 6E10 (Signet Labs Inc.), respectively. The optimal concentration for the pAb40 antibody was 3 μg/ml in Superblock/TBS (Pierce) that was supplemented with 0.05% Tween 20 (Sigma). Optimal concentration for the detection antibody 6E10-biotinylated was […] in Superblock/TBS (Pierce) that had been supplemented with 2% normal goat serum and 2% normal mouse serum.
Cellular supernatants were incubated with the capture antibody for 3 h at 4° C., followed by 3 wash steps in TBS-tween (0.05%). The detecting antibody incubation was for 2 h at 4° C., again followed by the wash steps as described previously. The final readout of the ELISA is Time-Resolved Fluorescence (counts per minute) using Delfia reagents Streptavidin-Europium and Enhancement solutions (Perkin Elmer) and the Victor 2 multilabel counter (Perkin Elmer).

SMILES	IC50 [µM]
CC(C)c1ccc2c(c1)[C@@H](NC[C@@H](O)[C@H](Cc1ccccc1)NC(=O)c1nn(-c3ccccc3)c(=O)cc1Cl)CC1(CCCC1)O2 [Example 144, 4-chloro-N-((2S,3R)-3-hydroxy-4-((S)-6-isopropyl-2,2-spirocyclopentylchroman-4-ylamino)-1-phenylbutan-2-yl)-6-oxo-1-phenyl-1,6-dihydropyridazine-3-carb oxamide]	≤ 5
CCc1ccc2c(c1)[C@@H](NC[C@@H](O)[C@H](Cc1ccccc1)NC(=O)C1CN(C)c3ccccc3O1)CC1(CCCC1)O2 (stereo partly drawn) [Example 48, (S)—N-((2S,3R)-4-((S)-6-ethyl-2,2-spirocyclopentylchroman-4-ylamino)-3-hydroxy-1-phenylbutan-2-yl)-4-methyl-3,4-dihydro-2H-benzo[b][1,4]oxazine-2-carboxamide]	≤ 5
CCc1ccc2c(c1)[C@@H](NC[C@@H](O)[C@H](Cc1cscn1)NC(=O)c1cc(-c3ccccn3)c(=O)n(C3CCCC3)c1)CC1(CCC1)O2 [Example 525, 1′-cyclopentyl-N-((1S,2R)-3-(((4S)-6-ethyl-3,4-dihydrospiro[chromene-2,1′-cyclobutan]-4-yl)amino)-2-hydroxy-1-(1,3-thiazol-4-ylmethyl)propyl)-2′-oxo-1′,2′-dihydro-2,3′-bipyridine-5′-carboxamide]	≤ 5
CCc1ccc2c(c1)[C@@H](NC[C@@H](O)[C@H](Cc1ccccc1)NC(=O)c1ccc(=O)n(C3CCCC3)c1)CC(C)(C)O2 [Example 163]	≤ 5
CC(C)(C)Cn1cc(C(=O)N[C@@H](Cc2ccccc2)[C@H](O)CN[C@H]2CC3(CCCC3)Oc3ccc(OC(F)(F)F)cc32)ccc1=O [Example 136, N-((2S,3R)-4-((S)-2,2-spirocyclopentyl-6-(trifluoro-methoxy)chroman-4-ylamino)-3-hydroxy-1-phenylbutan-2-yl)-1-neopentyl-6-oxo-1,6-dihydropyridine-3-carboxamide]	≤ 5
O=C(N[C@@H](Cc1ccccc1)[C@H](O)CN[C@H]1CC2(CCC2)Oc2ccccc21)c1cc(-c2ccccn2)c(=O)n(C2CCCC2)c1 [Example 476, 1′-cyclopentyl-N-((1S,2R)-3-((4S)-3,4-dihydrospiro[chromene-2,1′-cyclobutan]-4-ylamino)-2-hydroxy-1-(phenylmethyl)propyl)-2′-oxo-1′,2′-dihydro-2,3′-bipyridine-5′-carboxamide]	≤ 5
Cc1cccc(C(=O)N2CCO[C@@H](C(=O)N[C@@H](Cc3ccccc3)[C@H](O)CN[C@H]3CC4(CCC4)Cc4ncc(C)cc43)C2)c1 [Example 495, (2R)-N-((1S,2R)-2-hydroxy-3-(((5′S)-3′-methyl-5′,8′-dihydro-6′H-spiro[cyclobutane-1,7′-quinolin]-5′-yl)amino)-1-(phenylmethyl)propyl)-4-((3-methylphenyl)carbonyl)-2-morpholinecarboxamide]	≤ 5
CC1(C)Cc2ccc(O[C@H]3CCOC3)cc2[C@@H](NC[C@@H](O)[C@H](Cc2ccccc2)NC(=O)[C@@H]2CCC(=O)O2)C1 [Example 517, (2S)-N-((1S,2R)-3-(((1S)-3,3-dimethyl-7-((3S)-tetrahydro-3-furanyloxy)-1,2,3,4-tetrahydro-1-naphthalenyl)amino)-2-hydroxy-1-(phenyl-methyl)propyl)-5-oxotetrahydro-2-furancarboxamide]	≤ 5
O=C(N[C@@H](Cc1ccccc1)[C@H](O)CN[C@H]1CC2(CCCC2)Oc2ccc(Br)cc21)c1cc(N2CCCC2=O)c(=O)n(C2CCCC2)c1 [Example 121]	≤ 5
CCc1ccc2c(c1)[C@@H](NC[C@@H](O)[C@H](Cc1ccccc1)NC(=O)[C@@H]1C[C@@H](c3ccccc3)CN(C(=O)c3cccc(C)c3)C1)CC1(CCC1)O2 [Example 527, (3R,5S)-N-((1S,2R)-3-(((4S)-6-ethyl-3,4-dihydrospiro[chromene-2,1′-cyclobutan]-4-yl)amino)-2-hydroxy-1-(phenylmethyl)propyl)-1-((3-methylphenyl)carbonyl)-5-phenyl-3-piperidinecarboxamide]	≤ 5
CCc1ccc2c(c1)C(NC[C@@H](O)[C@H](Cc1ccccc1)NC(=O)c1cc(N(C)C)c(=O)n(C3CCCC3)c1)CC1(CCCC1)O2 (stereo partly drawn) [Example 19, 1-cyclopentyl-5-(dimethylamino)-N-((2S,3R)-4-(6-ethyl-2,2-spirocyclopentylchroman-4-ylamino)-3-hydrodroxy-1-phenylbutan-2-yl)-6-oxo-1,6-dihydropyridine-3-carboxamide]	≤ 5

Continued, values first:

IC50 [µM]	SMILES
≤ 5	CCc1ccc2c(c1)[C@@H](NC[C@@H](O)[C@H](Cc1ccccc1)NC(=O)c1ccc(=O)n(C3CCCC(C)C3)c1)CC1(CCCC1)O2 (stereo partly drawn) [Example 161]
≤ 5	O=C(N[C@@H](Cc1ccccc1)[C@H](O)CN[C@H]1CC2(CCCC2)Oc2ccccc21)c1ccc(=O)n(C2CCCC2)c1 [Example 149, 1-cyclopentyl-N-((2S,3R)-4-((S)-2,2-spirocyclopentylchroman-4-ylamino)-3-hydroxy-1-phenylbutan-2-yl)-6-oxo-1,6-dihydropyridine-3-carboxamide]
≤ 5	CCc1cc2c(s1)CC(C)(C)C[C@@H]2NC[C@@H](O)[C@H](Cc1ccccc1)NC(=O)[C@@H]1CN(C(=O)c2cccc(C)c2)CCO1 [Example 514, (2S)-N-((1S,2R)-3-(((4S)-2-ethyl-6,6-dimethyl-4,5,6,7-tetrahydro-1-benzothien-4-yl)amino)-2-hydroxy-1-(phenylmethyl)propyl)-4-((3-methylphenyl)carbonyl)-2-morpholinecarboxamide]
≤ 5	CCc1ccc2c(c1)[C@@H](NC[C@@H](O)[C@H](Cc1ccccc1)NC(=O)c1cc(-c3ccccc3F)c(=O)n3c1CCC3)CC1(CCCC1)O2 [Example 107, N-((2S,3R)-4-((8)-6-Ethyl-2,2-spirocyclopentylchroman-4-ylamino)3-hydroxy-1-phenylbutan-2-yl)-6-(2-fluorophenyl)-5-oxo-1,2,3,5-tetrahydroindolizine-8-carboxamide]
≤ 5	Cc1cccc(C(=O)N2CCO[C@@H](C(=O)N[C@@H](Cc3cccc(C#N)c3)[C@H](O)CN[C@H]3CC(C)(C)Cc4ncc(C)cc43)C2)c1 [Example 497, (2R)-N-((1S,2R)-1-((3-cyanophenyl)methyl)-2-hydroxy-3-(((5S)-3,7,7-trimethyl-5,6,7,8-tetrahydro-5-quinolinyl)amino)propyl)-4-((3-methylphenyl)carbonyl)-2-morpholinecarboxamide]
≤ 5	CCc1ccc2c(c1)[C@@H](NC[C@@H](O)[C@H](Cc1ccccc1)NC(=O)c1ccc(=O)n(C3CCCC3)c1)CC1(CCC1)O2 [Example 117]
≤ 5	CC1(C)Cc2ccc(O[C@H]3CCOC3)cc2[C@@H](NC[C@@H](O)[C@H](Cc2ccccc2)NC(=O)c2ccc(=O)n(C3CCCC3)c2)C1 [Example 518, 1-cyclopentyl-N-((1S,2R)-3-(((1S)-3,3-dimethyl-7-((3S)-tetrahydro-3-furanyloxy)-1,2,3,4-tetrahydro-1-naphthalenyl)amino)-2-hydroxy-1-(phenylmethyl)propyl)-6-oxo-1,6-dihydro-3-pyridinecarboxamide]
